Results reported in ChEMBL document CHEMBL2046424, “Synthesis and anti Methicillin resistant Staphylococcus aureus activity of substituted chalcones alone and in combination with non-beta-lactam antibiotics” (2012).
Values after ≈ are worked out from the molar mass of the structure shown. Active and inactive are the calls of the source. No cut-off for these calls is given here.

Tests used:
Staphylococcus aureus [1] = experiment: Antibacterial activity against methicillin-sensitive Staphylococcus aureus ATCC 25923 after 24 hrs by microdilution method; format: functional
Staphylococcus aureus [2] = experiment: Antibacterial activity against methicillin-resistant Staphylococcus aureus ATCC 43300 after 24 hrs by microdilution method; format: functional
Staphylococcus aureus [3] = experiment: microbe, parasite or virus in culture; conditions: ATCC 25923, 24 h, read-out: DIZ
Description: Antibacterial activity against methicillin-sensitive Staphylococcus aureus ATCC 25923 at 5 ug/ml after 24 hrs by disc diffusion method

Staphylococcus aureus [4] = experiment: microbe, parasite or virus in culture; conditions: ATCC 43300, 24 h, read-out: DIZ
Description: Antibacterial activity against methicillin-resistant Staphylococcus aureus ATCC 43300 at 5 ug/ml after 24 hrs by disc diffusion method

Staphylococcus aureus [5] = experiment: Antibacterial activity against methicillin-sensitive Staphylococcus aureus ATCC 25923 at 256 ug/ml after 24 hrs by disc diffusion method; format: functional, organism-based
Staphylococcus aureus [6] = experiment: Antibacterial activity against methicillin-resistant Staphylococcus aureus ATCC 43300 at 256 ug/ml after 24 hrs by disc diffusion method; format: functional, organism-based
Staphylococcus aureus [7] = experiment: Antibacterial activity against methicillin-sensitive Staphylococcus aureus ATCC 25923 at 2 ug/ml after 24 hrs by disc diffusion method; format: functional; conditions: ATCC 25923, 24 h, read-out: DIZ
Staphylococcus aureus [8] = experiment: Antibacterial activity against methicillin-resistant Staphylococcus aureus ATCC 43300 at 2 ug/disc after 24 hrs by disc diffusion method; format: functional, organism-based
Staphylococcus aureus [9] = experiment: Antibacterial activity against methicillin-sensitive Staphylococcus aureus ATCC 25923 at 30 ug/ml after 24 hrs by disc diffusion method; format: functional; conditions: ATCC 25923, 24 h, read-out: DIZ
Staphylococcus aureus [10] = experiment: Antibacterial activity against methicillin-resistant Staphylococcus aureus ATCC 43300 at 30 ug/ml after 24 hrs by disc diffusion method; format: functional; conditions: ATCC 43300, 24 h, read-out: DIZ
Staphylococcus aureus [11] = experiment: Antibacterial activity against methicillin-sensitive Staphylococcus aureus ATCC 25923 at 15 ug/ml after 24 hrs by disc diffusion method; format: functional; conditions: ATCC 25923, 24 h, read-out: DIZ
Staphylococcus aureus [12] = experiment: Antibacterial activity against methicillin-resistant Staphylococcus aureus ATCC 43300 at 15 ug/disc after 24 hrs by disc diffusion method; format: functional, organism-based
Staphylococcus aureus [13] = experiment: Antibacterial activity against methicillin-sensitive Staphylococcus aureus ATCC 25923 at 102.4 mg/ml after 24 hrs by disc diffusion method; format: functional; conditions: ATCC 25923, 24 h, read-out: DIZ
Staphylococcus aureus [14] = experiment: Antibacterial activity against methicillin-resistant Staphylococcus aureus ATCC 43300 at 102.4 mg/ml after 24 hrs by disc diffusion method; format: functional; conditions: ATCC 43300, 24 h, read-out: DIZ
Staphylococcus aureus [15] = experiment: Antibacterial activity against methicillin-sensitive Staphylococcus aureus ATCC 25923 after 24 hrs by microdilution method in presence of non-beta lactam antibiotic Doxycycline; format: functional
Staphylococcus aureus [16] = experiment: Antibacterial activity against methicillin-resistant Staphylococcus aureus ATCC 43300 after 24 hrs by microdilution method in presence of non-beta lactam antibiotic Doxycycline; format: functional

O=C(O)c1cn(C2CC2)c2cc(N3CCNCC3)c(F)cc2c1=O [CIPROFLOXACIN]
MIC (Staphylococcus aureus [1]; ATCC 25923, 24 h): 0.25 µg/mL (≈ 0.754 µM)
MIC (Staphylococcus aureus [2]; ATCC 43300, 24 h): 0.5 µg/mL (≈ 1.51 µM)
zone of inhibition at 5 µg/mL (Staphylococcus aureus [3]): 27 mm
zone of inhibition at 5 µg/mL (Staphylococcus aureus [4]): 21 mm

COc1ccc(/C=C/C(=O)c2ccccc2O)cc1OC
diameter of the inhibition zone (DIZ) (Staphylococcus aureus [5]): inactive
diameter of the inhibition zone (DIZ) (Staphylococcus aureus [6]): inactive

COc1cccc(/C=C/C(=O)c2ccc(Br)cc2)c1
diameter of the inhibition zone (DIZ) (Staphylococcus aureus [5]): inactive
diameter of the inhibition zone (DIZ) (Staphylococcus aureus [6]): inactive

O=C(/C=C/c1ccccc1)c1ccccc1O
diameter of the inhibition zone (DIZ) (Staphylococcus aureus [5]): inactive
diameter of the inhibition zone (DIZ) (Staphylococcus aureus [6]): inactive

COc1ccc(C(=O)/C=C/c2ccccc2)c(O)c1
diameter of the inhibition zone (DIZ) (Staphylococcus aureus [5]): inactive
diameter of the inhibition zone (DIZ) (Staphylococcus aureus [6]): inactive

GENTAMICIN
MIC (Staphylococcus aureus [1]): 1 µg/mL
MIC (Staphylococcus aureus [2]): 4 µg/mL

COc1ccc(C(=O)/C=C/c2cc(OC)c(OC)c(OC)c2)c(O)c1
diameter of the inhibition zone (DIZ) (Staphylococcus aureus [5]): inactive
diameter of the inhibition zone (DIZ) (Staphylococcus aureus [6]): inactive

COc1ccc(/C=C/C(=O)c2ccccc2O)c(OC)c1
diameter of the inhibition zone (DIZ) (Staphylococcus aureus [5]): inactive
diameter of the inhibition zone (DIZ) (Staphylococcus aureus [6]): inactive

COc1ccccc1/C=C/C(=O)c1ccccc1
diameter of the inhibition zone (DIZ) (Staphylococcus aureus [5]): inactive
diameter of the inhibition zone (DIZ) (Staphylococcus aureus [6]): inactive

CCC[C@@H]1C[C@@H](C(=O)N[C@@H]([C@H]2O[C@H](SC)[C@H](O)[C@@H](O)[C@H]2O)[C@H](C)Cl)N(C)C1 [CLINDAMYCIN]
zone of inhibition at 2 µg/mL (Staphylococcus aureus [7]): 24 mm
diameter of the inhibition zone (DIZ) (Staphylococcus aureus [8]): inactive

O=C(N[C@H](CO)[C@H](O)c1ccc([N+](=O)[O-])cc1)C(Cl)Cl [CHLORAMPHENICOL]
zone of inhibition at 30 µg/mL (Staphylococcus aureus [9]): 25 mm
zone of inhibition at 30 µg/mL (Staphylococcus aureus [10]): 26 mm

COc1ccc(/C=C/C(=O)c2ccccc2O)cc1
diameter of the inhibition zone (DIZ) (Staphylococcus aureus [5]): inactive
diameter of the inhibition zone (DIZ) (Staphylococcus aureus [6]): inactive

COc1ccc2cc3[n+](cc2c1OC)CCc1cc2c(cc1-3)OCO2 [BERBERINE]
MIC (Staphylococcus aureus [2]; ATCC 43300, 24 h): 128 µg/mL

COc1ccccc1/C=C/C(=O)c1ccc(Br)cc1
diameter of the inhibition zone (DIZ) (Staphylococcus aureus [5]): inactive
diameter of the inhibition zone (DIZ) (Staphylococcus aureus [6]): inactive

COc1ccc(/C=C/C(=O)c2ccc(Br)cc2)cc1
diameter of the inhibition zone (DIZ) (Staphylococcus aureus [5]): inactive
diameter of the inhibition zone (DIZ) (Staphylococcus aureus [6]): inactive

C[C@H]1c2cccc(O)c2C(=O)C2=C(O)[C@]3(O)C(=O)C(C(N)=O)=C(O)[C@@H](N(C)C)[C@@H]3[C@@H](O)[C@@H]21.O [DOXYCYCLINE]
zone of inhibition at 30 µg/mL (Staphylococcus aureus [9]): 27 mm
zone of inhibition at 30 µg/mL (Staphylococcus aureus [10]): 27 mm
MIC (Staphylococcus aureus [1]; ATCC 25923, 24 h): 8 µg/mL
MIC (Staphylococcus aureus [2]; ATCC 43300, 24 h): 4 µg/mL

CC[C@H]1OC(=O)[C@H](C)[C@@H](O[C@H]2C[C@@](C)(OC)[C@@H](O)[C@H](C)O2)[C@H](C)[C@@H](O[C@@H]2O[C@H](C)C[C@H](N(C)C)[C@H]2O)[C@](C)(O)C[C@@H](C)C(=O)[C@H](C)[C@@H](O)[C@]1(C)O [ERYTHROMYCIN]
zone of inhibition at 15 µg/mL (Staphylococcus aureus [11]): 25 mm
diameter of the inhibition zone (DIZ) (Staphylococcus aureus [12]): inactive

COc1cc(/C=C/C(=O)c2ccccc2O)cc(OC)c1OC
diameter of the inhibition zone (DIZ) (Staphylococcus aureus [5]): inactive
diameter of the inhibition zone (DIZ) (Staphylococcus aureus [6]): inactive

O=C(/C=C/c1ccccc1O)c1ccc(Br)cc1
zone of inhibition at 102400 µg/mL (Staphylococcus aureus [13]): 13 mm
zone of inhibition at 102400 µg/mL (Staphylococcus aureus [14]): 13 mm
MIC (Staphylococcus aureus [1]; ATCC 25923, 24 h): 32 µg/mL (≈ 106 µM)
MIC (Staphylococcus aureus [2]; ATCC 43300, 24 h): 64 µg/mL (≈ 211 µM)
fractional inhibitory concentration index (FICI) (Staphylococcus aureus [15]): 0.37
fractional inhibitory concentration index (FICI) (Staphylococcus aureus [16]): 0.62
